Here are results for 1 molecule from publication PMC6700801, “Caffeic acid phenethyl ester suppresses androgen receptor signaling and stability via inhibition of phosphorylation on Ser81 and Ser213” (Cell Communication and Signaling : CCS, 2019).

In this experiment the target is T1, Androgen receptor (AR) (Rattus norvegicus, UniProt P15207).
T1 sequence (P15207 646-902 limits assumed): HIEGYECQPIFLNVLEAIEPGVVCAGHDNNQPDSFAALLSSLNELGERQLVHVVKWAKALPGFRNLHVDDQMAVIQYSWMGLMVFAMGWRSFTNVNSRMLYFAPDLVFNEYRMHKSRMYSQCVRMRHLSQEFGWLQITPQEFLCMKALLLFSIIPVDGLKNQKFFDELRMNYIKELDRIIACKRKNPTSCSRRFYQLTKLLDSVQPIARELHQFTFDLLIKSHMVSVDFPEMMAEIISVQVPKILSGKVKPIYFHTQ
Kind of experiment: fluorescence polarization competition assay (PolarScreen AR Competitor Assay kit); very weak. Format: binding.

pIC50: −log10 of the molar value.

Usually pIC50 stands for −log10 of the IC50, conventionally taken in molar units. A lower pIC50 goes with a large IC50. In the case of `O=C(/C=C/c1ccc(O)c(O)c1)OCCc1ccccc1` [Caffeic acid phenethyl ester], the pIC50 was 3.88.
